Patent US6737439B2, “Aromatase inhibitors from Broussonetia papyrifera” (The Board of Trustees of the University of Illinois, priority 2001, dated 2004)
“And” between values parts separate entries of the source, which are not always exact repeats. Equal values may be shown once. “Also recorded” adds a separate entry of the source. Read-outs that look alike come from different tables or passages of the source.

Columns and labels:
aromatase = biological target: T1, aromatase (Homo sapiens, UniProt P11511); test: Assay for inhibition of aromatase activity (human placental microsomes, [1,2-3H]androstenedione); type: biochemical; conditions: for aromatase inhibition, result in words: in vitro aromatase assay; for fold greater aromatase inhibition potency than aminoglutethimide: versus positive control aminoglutethimide
T1 construct: Reaction mixtures were prepared in glass tubes containing 4 μL of placental microsomes (5 mg/mL); from tissue; host or cells: human term placenta (microsomal fraction)
T1 sequence (P11511 1-503): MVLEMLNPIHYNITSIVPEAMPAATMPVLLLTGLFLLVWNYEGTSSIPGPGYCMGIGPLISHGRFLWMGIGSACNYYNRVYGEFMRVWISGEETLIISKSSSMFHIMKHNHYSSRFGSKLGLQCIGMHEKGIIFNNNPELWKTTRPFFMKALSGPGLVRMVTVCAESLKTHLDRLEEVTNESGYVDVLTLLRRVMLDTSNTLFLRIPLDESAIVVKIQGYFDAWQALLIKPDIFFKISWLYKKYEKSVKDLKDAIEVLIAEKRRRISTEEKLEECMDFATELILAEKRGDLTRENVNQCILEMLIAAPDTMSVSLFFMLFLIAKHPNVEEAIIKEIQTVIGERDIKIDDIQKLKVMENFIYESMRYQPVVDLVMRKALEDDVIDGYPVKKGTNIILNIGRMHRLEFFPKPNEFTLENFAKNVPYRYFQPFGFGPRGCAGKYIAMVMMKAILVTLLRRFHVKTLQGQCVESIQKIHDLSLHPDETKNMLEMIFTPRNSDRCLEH
Protocol: Assay for Inhibition of Aromatase Activity. Microsomes were prepared from freshly delivered human term placentas using 0.05 M potassium phosphate buffer, pH 7.4, and stored frozen in plastic tubes at −70° C. […] After a 4 min incubation at 37° C., the reaction was terminated by adding 3 mL of chloroform. The tubes were centrifuged at 2,000×g for 10 min and then 300 μL of the aqueous phases were transferred to tubes containing 300 μL of charcoal/dextrin solution (5%). Following another 10 min centrifugation at 2,000×g, supernatant fractions (500 μL) were used for the determination of radioactivity. Inhibition of aromatase activity was calculated using the following equation: [formula]
Samples were tested in duplicate and the mean values were used to prepare dose-response curves. Results were typically expressed as IC50 values.

[1] = system: alveolar lesions in a mouse mammary organ culture model; test: Mouse mammary organ culture model, formation of alveolar lesions; type: cell-based; conditions: tested at 100 ng/ml
[2] = system: tumors in Sprague-Dawley rats; conditions: 400 mg/kg diet; cited from earlier work
[3] = human placental microsomes, read-out: IC50 (μM), aromatase inhibitory activity
[4] = read-out: IC50, inactive in the aromatase inhibition assay at the dose levels used

CC1(C)C=Cc2c(O)cc(-c3cc4ccc(O)cc4o3)cc2O1 [moracin D, Moracin D]
aromatase inhibition, result in words (aromatase): did not show potent aromatase inhibition

CC(C)=CCC/C(C)=C/Cc1c(-c2ccc(O)cc2O)oc2cc(O)cc(O)c2c1=O [Compound 1, 5,7,2′,4′-Tetrahydroxy-3-geranylflavone]
IC50 (aromatase; [3]): 24 µM
aromatase inhibition, result in words (aromatase): active
melting point: 94 to 95 °C

CC(C)=CCc1c(O)ccc(CCCc2ccc(O)cc2)c1O [Compound 6, 1-(2,4-Dihydroxy-3-prenylphenyl)-3-(4-hydroxyphenyl)propane]
aromatase inhibition, result in words (aromatase): inactive
melting point: 115 to 116 °C

CC(C)=CCc1cc([C@H]2Oc3c(CC=C(C)C)c(O)cc(O)c3C(=O)[C@@H]2O)ccc1O [(2R,3R)-lespedezaflavanone C, (2R,3R)-Lespedezaflavanone C]
aromatase inhibition, result in words (aromatase): did not show potent aromatase inhibition

O=C1c2c(O)cc(O)cc2O[C@H](c2ccc(O)cc2)[C@H]1O [(2R,3R)-katuranin, (2R,3R)-Katuranin]
aromatase inhibition, result in words (aromatase): did not show potent aromatase inhibition

Oc1ccc(CCCc2ccc(O)cc2O)cc1 [Compound 5, 1-(2,4-Dihydroxyphenyl)-3-(4-hydroxyphenyl)propane]
aromatase inhibition, result in words (aromatase): inactive
melting point: 92 to 93 °C

CC(C)(O)C1Cc2c(ccc3c2O[C@H](c2ccc(O)cc2O)CC3=O)O1 (stereo partly drawn) [Compound 11, 2S-2′,4′-Dihydroxy-2″-(1-hydroxy-1-methylethyl)-dihydrofuro[2,3-h]flavanone]
IC50 (aromatase; [3]): ~0.1 µM and 0.11 µM
aromatase inhibition, result in words (aromatase): active
fold greater aromatase inhibition potency than aminoglutethimide (aromatase): approximately 60 fold
inhibition at 0.1 µg/mL [1]: 50%

COc1cc(/C=C/C(=O)OC/C(C)=C/Cc2c(O)ccc(C(=O)/C=C/c3ccc(O)cc3O)c2O)ccc1O [Compound 8, 3′-(γ-hydroxymethyl-(E)-γ-methylallyl)-2,4,2′,4′-tetrahydroxychalcone 11′-O-ferulate]
IC50 (aromatase; [3]): 7.1 µM
aromatase inhibition, result in words (aromatase): active

O=c1ccc2c(O)cc(O)cc2o1 [5,7-dihydrocoumarin, 5,7-Dihydroxycoumarin]
IC50 (aromatase; [4]): > 225 µM

O=C1c2c(O)cc(O)cc2O[C@H](c2ccc(O)cc2O)[C@H]1O [(2R,3R)-5,7,2′,4′-tetrahydroxyflavanonol, (2R,3R)-5,7,2′,4′-Tetrahydroxyflavanonol]
aromatase inhibition, result in words (aromatase): did not show potent aromatase inhibition

COc1cc(O)ccc1CCCc1ccc(O)c(CC=C(C)C)c1 [Compound 7, 1-(4-Hydroxy-2-methoxyphenyl)-3-(4-hydroxy-3-prenylphenyl)propane]
aromatase inhibition, result in words (aromatase): inactive
melting point: 85 to 86 °C

CC(C)=CCc1c(O)cc(O)cc1-c1cc2ccc(O)cc2o1 [Compound 10, Demethylmoracin I]
IC50 (aromatase; [3]): 31.1 µM
aromatase inhibition, result in words (aromatase): did not show potent aromatase inhibition; also recorded: active

CC(C)=CCc1c(O)cc2oc(-c3ccc(O)c(O)c3)c(O)c(=O)c2c1O [gancaonin P, Gancaonin P]
aromatase inhibition, result in words (aromatase): not active

O=C1C[C@@H](c2ccc(O)cc2O)Oc2cc(O)cc(O)c21 [Compound 14, (2S)-5,7,2′,4′-Tetrahydroxyflavanone]
IC50 (aromatase; [3]): 2.2 µM

COc1ccc(CCCc2ccc(O)cc2)c(O)c1 [Compound 18, Broussonin A]
IC50 (aromatase; [3]): 30 µM
aromatase inhibition, result in words (aromatase): did not show potent aromatase inhibition

Oc1cc(O)cc(-c2cc3ccc(O)cc3o2)c1 [moracin M, Moracin M]
aromatase inhibition, result in words (aromatase): did not show potent aromatase inhibition

(2S)-Euchrenone a7 [Compound 15]
IC50 (aromatase; [3]): 3.4 µM

CC(C)=CCc1cc(-c2oc3c(CC=C(C)C)c(O)cc(O)c3c(=O)c2O)ccc1O [Compound 16, Broussoflavonol F]
IC50 (aromatase; [3]): 9.7 µM

COc1cc(O)cc(-c2cc3ccc(O)cc3o2)c1CC=C(C)C [moracin I, Moracin I]
aromatase inhibition, result in words (aromatase): did not show potent aromatase inhibition

CC(C)=CCC/C(C)=C/Cc1c(O)cc2oc(-c3ccc(O)c(O)c3)c(O)c(=O)c2c1O [Compound 2, 5,7,3′,4′-Tetrahydroxy-6-geranylflavonol]
aromatase inhibition, result in words (aromatase): not active; also recorded: inactive

COc1cc(O)ccc1CCCc1ccc(O)cc1 [broussonin B, Broussonin B]
aromatase inhibition, result in words (aromatase): did not show potent aromatase inhibition

COc1ccc(CCCc2ccc(OC)c(O)c2)c(O)c1 [broussonin E, Broussonin E]
aromatase inhibition, result in words (aromatase): did not show potent aromatase inhibition

CC(C)=CCc1cc2cc(-c3cc(O)cc(O)c3)oc2cc1O [Compound 20, Moracin N]
IC50 (aromatase; [3]): 31.1 µM
aromatase inhibition, result in words (aromatase): did not show potent aromatase inhibition

Aminoglutethimide
MNU-induced tumor incidence [2]: effectively reduces

CC(C)=CCc1c(O)ccc(C(=O)/C=C/c2ccc(O)cc2O)c1O [Compound 19, 2,4,2′,4′-Tetrahydroxy-3′-prenylchalcone]
IC50 (aromatase; [3]): 4.6 µM

Oc1ccc([C@@H]2CCc3ccc(O)cc3O2)cc1 [(2S)-7,4′-dihydroxyflavan, (2S)-7,4′-Dihydroxyflavan]
aromatase inhibition, result in words (aromatase): did not show potent aromatase inhibition

C/C(=C\Cc1c(O)ccc(C(=O)/C=C/c2ccc(O)cc2O)c1O)COC(=O)/C=C/c1ccc(O)cc1 [Compound 9, 3′-[γ-Hydroxymethyl-(E)-γ-methylallyl]-2,4,2′,4′-tetrahydroxychalcone 11′-O-coumarate]
IC50 (aromatase; [3]): 0.5 µM and 0.52 µM
aromatase inhibition, result in words (aromatase): active
fold greater aromatase inhibition potency than aminoglutethimide (aromatase): approximately ten

CC1=C[C@@H]2c3c(O)cc(-c4cc5ccc(O)cc5o4)cc3O[C@]3(c4ccc(O)cc4O)Oc4cc(O)ccc4[C@@H](C1)[C@H]23 [Compound 21, Albanol A]
IC50 (aromatase; [3]): 7.5 µM

CC(C)=CCc1cc([C@@H]2CCc3ccc(O)cc3O2)ccc1O [Compound 4, (2S)-7,4′-Dihydroxy-3′-prenylflavan]
aromatase inhibition, result in words (aromatase): did not show potent aromatase inhibition; also recorded: inactive

COc1ccc2c(c1CC=C(C)C)O[C@H](c1ccc(O)cc1O)CC2 [Compound 22, (2S)-2′,4′-Dihydroxy-7-methoxy-8-prenylflavan]
aromatase inhibition, result in words (aromatase): did not show potent aromatase inhibition
IC50 (aromatase; [4]): > 118 µM
melting point: 95 to 96 °C

COc1c(-c2ccc(O)c(O)c2)oc2cc(O)c(C/C=C(\C)CCC=C(C)C)c(O)c2c1=O [Compound 3, 5,7,3′,4′-Tetrahydroxy-3-methoxy-6-geranylflavone]
aromatase inhibition, result in words (aromatase): not active; also recorded: inactive
melting point: 98 to 99 °C

Broussonin F
aromatase inhibition, result in words (aromatase): did not show potent aromatase inhibition

CC(C)=CCc1cc2c(cc1O)O[C@H](c1ccc(O)cc1)CC2=O [bavachin, Bavachin]
aromatase inhibition, result in words (aromatase): not active
